Experimental findings from US20240043404A1 (AbbVie Inc., priority 2009, published 2024) are described below.

The test system of one experiment is RS4;11 cells. In words: RS4;11 cell viability assay (CellTiter Glo).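 Note: acute lymphoblastic leukemia line RS4,11, EC50 derived from percentage of viable cells after treatment relative to untreated controls, cell killing taken as a measure of Bcl-2 inhibition.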 To be noted: Homo sapiens, RS4-11, 48 h, 50,000 cells per well, 10% human serum, 48 hours; read-out: RS4; 11 EC50 Values. It counts as cell-based, human. On the technique in general: ATP-based viability assays read luminescence as a measure of living cells.
Method: The acute lymphoblastic leukemia (ALL) cell line RS4;11 was used as the primary human cell line to assess the cellular activity of Bcl-2 selective agents in vitro and their efficacy in vivo.
Cell cytotoxicity EC50 values were assessed using CellTiter Glo (Promega) according to the manufacturer's recommendations. The EC50 values were determined as a percentage of viable cells following treatment compared to the untreated control cells.
As to `CC1(C)CCC(CN2CCN(c3ccc(C(=O)NS(=O)(=O)c4cnc(OCC5(F)CCN(C(CF)CF)CC5)c(Cl)c4)c(Oc4cnc5[nH]ccc5c4)c3)CC2)=C(c2ccc(Cl)cc2)C1` [Example 282, N-[(5-chloro-6-{[1-(1,3-difluoropropan-2-yl)-4-fluoropiperidin-4-yl]methoxy}pyridin-3-yl)sulfonyl]-4-(4-{[2-(4-chlorophenyl)-4,4-dimethylcyclohex-1-en-1-yl]methyl}piperazin-1-yl)-2-(1H-pyrrolo[2,3-b]pyridin-5-yloxy)benzamide], the EC50 worked out at 0.0322 µM.
Still for that read-out and setting: the result for `COCC1CCC(CNc2ccc(S(=O)(=O)NC(=O)c3ccc(N4CCN(CC5=C(c6ccc(Cl)cc6)CC(C)(C)CC5)CC4)cc3Oc3cnc4[nH]ccc4c3)cc2[N+](=O)[O-])CC1` (stereo not drawn) [Example 374, 4-(4-{[2-(4-chlorophenyl)-4,4-dimethylcyclohex-1-en-1-yl]methyl}piperazin-1-yl)-N-{[4-({[4-(methoxymethyl)cyclohexyl]methyl}amino)-3-nitrophenyl]sulfonyl}-2-(1H-pyrrolo[2,3-b]pyridin-5-yloxy)benzamide] reads 0.0155 µM; that for `CC1(C)CCC(CN2CCN(c3ccc(C(=O)NS(=O)(=O)c4ccc(NC5CCN(C6CC6)CC5)c(S(=O)(=O)C(F)(F)F)c4)c(Oc4cnc5[nH]ccc5c4)c3)CC2)=C(c2ccc(Cl)cc2)C1` [Example 190, 4-(4-{[2-(4-chlorophenyl)-4,4-dimethylcyclohex-1-en-1-yl]methyl}piperazin-1-yl)-N-({4-[(1-cyclopropylpiperidin-4-yl)amino]-3-[(trifluoromethyl)sulfonyl]phenyl}sulfonyl)-2-(1H-pyrrolo[2,3-b]pyridin-5-yloxy)benzamide], 0.551 µM.
On the same count and under the same terms, with `CO[C@H]1CC[C@@H](CNc2ccc(S(=O)(=O)NC(=O)c3ccc(N4CCN(CC5=C(c6ccc(Cl)cc6)CC(C)(C)OC5)CC4)cc3Oc3cnc4[nH]ccc4c3)cc2[N+](=O)[O-])CC1` [Example 72, Cis-4-(4-{[4-(4-chlorophenyl)-6,6-dimethyl-5,6-dihydro-2H-pyran-3-yl]methyl}piperazin-1-yl)-N-[(4-{[(4-methoxycyclohexyl)methyl]amino}-3-nitrophenyl)sulfonyl]-2-(1H-pyrrolo[2,3-b]pyridin-5-yloxy)benzamide] the figure was 0.00751 µM.
The same measure, in the same setting: the result for `CC1(C)CCC(CN2CCN(c3ccc(C(=O)NS(=O)(=O)c4ccc(NC[C@H]5CCN(C6COC6)C5)c([N+](=O)[O-])c4)c(Oc4cnc5[nH]ccc5c4)c3)CC2)=C(c2ccc(Cl)cc2)C1` [Example 195, 4-(4-{[2-(4-chlorophenyl)-4,4-dimethylcyclohex-1-en-1-yl]methyl}piperazin-1-yl)-N-{[3-nitro-4-({[(3R)-1-oxetan-3-ylpyrrolidin-3-yl]methyl}amino)phenyl]sulfonyl}-2-(1H-pyrrolo[2,3-b]pyridin-5-yloxy)benzamide] reads 0.00207 µM.
Consider `O=C(NS(=O)(=O)c1ccc(NCCCN2CCOCC2)c([N+](=O)[O-])c1)c1ccc(N2CCN(Cc3ccccc3-c3ccc(Cl)cc3)CC2)cc1Oc1cnc2[nH]ccc2c1` [Example 2, 4-{4-[(4′-chloro-1,1′-biphenyl-2-yl)methyl]piperazin-1-yl}-N-({4-[(3-morpholin-4-ylpropyl)amino]-3-nitrophenyl}sulfonyl)-2-(1H-pyrrolo[2,3-b]pyridin-5-yloxy)benzamide], for which the EC50 is 0.783 µM.
On the same count and under the same terms, the result for `CC1(C)CCC(CN2CCN(c3ccc(C(=O)NS(=O)(=O)c4ccc(NCC5CCOCC5)c([N+](=O)[O-])c4)c(Oc4cnc5[nH]ccc5c4)c3)CC2)=C(c2ccc(Cl)cc2)C1` [Example 5, 4-(4-{[2-(4-chlorophenyl)-4,4-dimethylcyclohex-1-en-1-yl]methyl}piperazin-1-yl)-N-({3-nitro-4-[(tetrahydro-2H-pyran-4-ylmethyl)amino]phenyl}sulfonyl)-2-(1H-pyrrolo[2,3-b]pyridin-5-yloxy)benzamide] reads 0.0124 µM; that for `CC1(C)CCC(c2ccc(Cl)cc2)=C(CN2CCN(c3ccc(C(=O)NS(=O)(=O)c4ccc(NCC5CCOCC5)c([N+](=O)[O-])c4)c(Oc4cnc5[nH]ccc5c4)c3)CC2)C1` [Example 75, 4-(4-{[2-(4-chlorophenyl)-5,5-dimethylcyclohex-1-en-1-yl]methyl}piperazin-1-yl)-N-({3-nitro-4-[(tetrahydro-2H-pyran-4-ylmethyl)amino]phenyl}sulfonyl)-2-(1H-pyrrolo[2,3-b]pyridin-5-yloxy)benzamide], 0.0151 µM; that for `CC1(C)CCC(CN2CCN(c3ccc(C(=O)NS(=O)(=O)c4cnc(OC[C@H]5CN(CC#N)CCO5)c(Cl)c4)c(Oc4cnc5[nH]ccc5c4)c3)CC2)=C(c2ccc(Cl)cc2)C1` [Example 246, N-[(5-chloro-6-{[(2R)-4-(cyanomethyl)morpholin-2-yl]methoxy}pyridin-3-yl)sulfonyl]-4-(4-{[2-(4-chlorophenyl)-4,4-dimethylcyclohex-1-en-1-yl]methyl}piperazin-1-yl)-2-(1H-pyrrolo[2,3-b]pyridin-5-yloxy)benzamide], 0.402 µM.
In the case of `CC1(C)CCC(CN2CCN(c3ccc(C(=O)NS(=O)(=O)c4ccc(NC5CN(C6CCOCC6)C5)c([N+](=O)[O-])c4)c(Oc4cnc5[nH]ccc5c4)c3)CC2)=C(c2ccc(Cl)cc2)C1` [Example 116, 4-(4-{[2-(4-chlorophenyl)-4,4-dimethylcyclohex-1-en-1-yl]methyl}piperazin-1-yl)-N-({3-nitro-4-[(1-tetrahydro-2H-pyran-4-ylazetidin-3-yl)amino]phenyl}sulfonyl)-2-(1H-pyrrolo[2,3-b]pyridin-5-yloxy)benzamide], the EC50 was 0.0285 µM.
Still for that read-out and setting: the result for `CN1CCC(Nc2ccc(S(=O)(=O)NC(=O)c3ccc(N4CCN(CC5=C(c6ccc(Cl)cc6)CC(C)(C)CC5)CC4)cc3Oc3cccc4[nH]c5ccccc5c34)cc2[N+](=O)[O-])CC1` [Example 7, 2-(9H-carbazol-4-yloxy)-4-(4-{[2-(4-chlorophenyl)-4,4-dimethylcyclohex-1-en-1-yl]methyl}piperazin-1-yl)-N-({4-[(1-methylpiperidin-4-yl)amino]-3-nitrophenyl}sulfonyl)benzamide] reads 0.192 µM.
On the same count and under the same terms, with `O=C(NS(=O)(=O)c1cnc(OCC2(F)CCN(C3COC3)CC2)c(Cl)c1)c1ccc(N2CCN(CC3=C(c4ccc(Cl)cc4)CC4(CC3)CC4)CC2)cc1Oc1cnc2[nH]ccc2c1` [Example 345, N-[(5-chloro-6-{[4-fluoro-1-(oxetan-3-yl)piperidin-4-yl]methoxy}pyridin-3-yl)sulfonyl]-4-(4-{[5-(4-chlorophenyl)spiro[2.5]oct-5-en-6-yl]methyl}piperazin-1-yl)-2-(1H-pyrrolo[2,3-b]pyridin-5-yloxy)benzamide] the figure was 0.00925 µM; with `CC1(C)CCC(CN2CCN(c3ccc(C(=O)NS(=O)(=O)c4ccc(NCCCN(CC(F)(F)F)C5CC5)c([N+](=O)[O-])c4)c(Oc4cnc5[nH]ccc5c4)c3)CC2)=C(c2ccc(Cl)cc2)C1` [Example 308, 4-(4-{[2-(4-chlorophenyl)-4,4-dimethylcyclohex-1-en-1-yl]methyl}piperazin-1-yl)-N-{[4-({3-[cyclopropyl(2,2,2-trifluoroethyl)amino]propyl}amino)-3-nitrophenyl]sulfonyl}-2-(1H-pyrrolo[2,3-b]pyridin-5-yloxy)benzamide], 0.257 µM.
Same read-out and setting: the result for `CC1(C)CCC(CN2CCN(c3ccc(C(=O)NS(=O)(=O)c4ccc(OCC5(F)CCOCC5)c([N+](=O)[O-])c4)c(Oc4cnc5[nH]ccc5c4)c3)CC2)=C(c2ccc(Cl)cc2)C1` [Example 37, 4-(4-{[2-(4-chlorophenyl)-4,4-dimethylcyclohex-1-en-1-yl]methyl}piperazin-1-yl)-N-({4-[(4-fluorotetrahydro-2H-pyran-4-yl)methoxy]-3-nitrophenyl}sulfonyl)-2-(1H-pyrrolo[2,3-b]pyridin-5-yloxy)benzamide] reads 0.00118 µM; that for `CC(=O)N1CCOC(CNc2ccc(S(=O)(=O)NC(=O)c3ccc(N4CCN(CC5=C(c6ccc(Cl)cc6)CC(C)(C)CC5)CC4)cc3Oc3cnc4[nH]ccc4c3)cc2[N+](=O)[O-])C1` (stereo not drawn) [Example 136, N-[(4-{[(4-acetylmorpholin-2-yl)methyl]amino}-3-nitrophenyl)sulfonyl]-4-(4-{[2-(4-chlorophenyl)-4,4-dimethylcyclohex-1-en-1-yl]methyl}piperazin-1-yl)-2-(1H-pyrrolo[2,3-b]pyridin-5-yloxy)benzamide], 0.00296 µM.
Consider `CN1CCN(Nc2ccc(S(=O)(=O)NC(=O)c3ccc(N4CCN(CC5=C(c6ccc(Cl)cc6)CC(C)(C)CC5)CC4)cc3Oc3cnc4[nH]ccc4c3)cc2[N+](=O)[O-])CC1` [Example 6, 4-(4-{[2-(4-chlorophenyl)-4,4-dimethylcyclohex-1-en-1-yl]methyl}piperazin-1-yl)-N-({4-[(4-methylpiperazin-1-yl)amino]-3-nitrophenyl}sulfonyl)-2-(1H-pyrrolo[2,3-b]pyridin-5-yloxy)benzamide], for which the EC50 came out at 0.0349 µM.
The same measure, in the same setting: with `CC1(C)CCC(CN2CCN(c3ccc(C(=O)NS(=O)(=O)c4ccc(OC[C@H]5COCCO5)c([N+](=O)[O-])c4)c(Oc4cnc5[nH]ccc5c4)c3)CC2)=C(c2ccc(Cl)cc2)C1` [Example 30, 4-(4-{[2-(4-chlorophenyl)-4,4-dimethylcyclohex-1-en-1-yl]methyl}piperazin-1-yl)-N-({4-[(2R)-1,4-dioxan-2-ylmethoxy]-3-nitrophenyl}sulfonyl)-2-(1H-pyrrolo[2,3-b]pyridin-5-yloxy)benzamide] the figure was 0.0153 µM.
Same read-out and setting: with `CC1(C)CCC(CN2CCN(c3ccc(C(=O)NS(=O)(=O)c4ccc(OCC5CCN(C(CF)CF)CC5)c([N+](=O)[O-])c4)c(Oc4cnc5[nH]ccc5c4)c3)CC2)=C(c2ccc(Cl)cc2)C1` [Example 129, 4-(4-{[2-(4-chlorophenyl)-4,4-dimethylcyclohex-1-en-1-yl]methyl}piperazin-1-yl)-N-{[4-({1-[2-fluoro-1-(fluoromethyl)ethyl]piperidin-4-yl}methoxy)-3-nitrophenyl]sulfonyl}-2-(1H-pyrrolo[2,3-b]pyridin-5-yloxy)benzamide] the figure was 0.0148 µM.

Staying with this experiment, now noted: Homo sapiens, RS4-11, Table 5, direct comparison Z=N with corresponding analogs Z=C; read-out: RS4; 11 EC50.
On to `O=C(NS(=O)(=O)c1ccc(NCCCN2CCOCC2)c([N+](=O)[O-])c1)c1ccc(N2CCN(Cc3ccccc3-c3ccc(Cl)cc3)CC2)cc1Oc1cnc2[nH]ccc2c1` [Example 2, 4-{4-[(4′-chloro-1,1′-biphenyl-2-yl)methyl]piperazin-1-yl}-N-({4-[(3-morpholin-4-ylpropyl)amino]-3-nitrophenyl}sulfonyl)-2-(1H-pyrrolo[2,3-b]pyridin-5-yloxy)benzamide], for which the EC50 amounted to 0.783 µM.
Consider `CC1(C)CCC(CN2CCN(c3ccc(C(=O)NS(=O)(=O)c4ccc(NCC5CCOCC5)c([N+](=O)[O-])c4)c(Oc4cnc5[nH]ccc5c4)c3)CC2)=C(c2ccc(Cl)cc2)C1` [Example 5, 4-(4-{[2-(4-chlorophenyl)-4,4-dimethylcyclohex-1-en-1-yl]methyl}piperazin-1-yl)-N-({3-nitro-4-[(tetrahydro-2H-pyran-4-ylmethyl)amino]phenyl}sulfonyl)-2-(1H-pyrrolo[2,3-b]pyridin-5-yloxy)benzamide], for which the EC50 worked out at 0.012 µM.
Turning to `CN1CCN(Nc2ccc(S(=O)(=O)NC(=O)c3ccc(N4CCN(CC5=C(c6ccc(Cl)cc6)CC(C)(C)CC5)CC4)cc3Oc3cnc4[nH]ccc4c3)cc2[N+](=O)[O-])CC1` [Example 6, 4-(4-{[2-(4-chlorophenyl)-4,4-dimethylcyclohex-1-en-1-yl]methyl}piperazin-1-yl)-N-({4-[(4-methylpiperazin-1-yl)amino]-3-nitrophenyl}sulfonyl)-2-(1H-pyrrolo[2,3-b]pyridin-5-yloxy)benzamide], the EC50 stood at 0.035 µM.
